Reference: ChEMBL document CHEMBL3627651, “Fine tuning of agonistic/antagonistic activity for vitamin D receptor by 22-alkyl chain length of ligands: 22S-Hexyl compound unexpectedly restored agonistic activity” (Bioorg Med Chem, 2015)
Calls of active or inactive are those of the source. No cut-off for these calls is given here.

How the values were obtained:
Vitamin D3 receptor = target: T1, Vitamin D3 receptor (Homo sapiens, UniProt P11473); assay: Displacement of [3H]-1alpha,25-dihydroxyvitamin D3 from recombinant human VDR LBD expressed in Escherichia coli BL21 (DE3) pLysS after 16 hrs
T1 sequence (P11473 whole entry): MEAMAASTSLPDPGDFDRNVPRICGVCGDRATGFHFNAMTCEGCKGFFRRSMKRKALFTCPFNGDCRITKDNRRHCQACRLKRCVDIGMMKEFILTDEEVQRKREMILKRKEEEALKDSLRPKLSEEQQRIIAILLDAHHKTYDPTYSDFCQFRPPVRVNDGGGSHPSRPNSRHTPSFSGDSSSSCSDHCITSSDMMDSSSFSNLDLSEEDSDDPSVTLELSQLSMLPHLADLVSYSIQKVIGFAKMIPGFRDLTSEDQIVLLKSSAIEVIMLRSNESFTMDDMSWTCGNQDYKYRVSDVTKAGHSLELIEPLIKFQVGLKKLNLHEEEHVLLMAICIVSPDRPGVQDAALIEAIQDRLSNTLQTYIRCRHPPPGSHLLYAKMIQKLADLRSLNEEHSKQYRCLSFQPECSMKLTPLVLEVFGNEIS

[1] = target: T2, Vitamin D3 receptor (Homo sapiens) (UniProt P11473); assay: Agonist activity at human VDR transfected in African green monkey COS7 cells assessed as induction of transcriptional activity at 10^-10 to 10^-5 M after 16 hrs by dual luciferase reporter gene assay; format: cell-based; details: COS-7
T2 sequence (whole entry): T1 sequence (P11473 whole entry)

C=C1[C@H](O)CC(=C/C=C2\CCC[C@]3(C)[C@@H]([C@H](C)[C@H](CCO)CCCCCC)CC[C@@H]23)C[C@H]1O
IC50 (Vitamin D3 receptor): 0.21 nM | Activity [1]: Active
